# Values of other authors, collected in US20130177646A1, “Solid Nicotine-Comprising Dosage Form with Reduced Organoleptic Disturbance” (priority 2012, published 2013).
# Conditions: smoking a cigarette
smiles,measurement,value
CN1CCCC1c1cccnc1 (stereo not shown) [nicotine],time for nicotine to reach the brain after inhalation,around ten
